Data reported in ChEMBL document CHEMBL6120977, “Structure-Affinity-Pharmacokinetics Relationships of Novel 18F-Labeled 1,4-Diazepane Derivatives for Orexin 1 Receptor Imaging” (J Med Chem, 2024).

Tests used:
[1] = species: Homo sapiens; test: Selectivity ratio of IC50 for recombinant human OX2R expressed in CHO-S cells to IC50 for recombinant human OX1R expressed in CHO-S cells; assay type: cell-based; details: tested as the 11C-labelled form
[2] = Selectivity ratio of Ki for OX2R (unknown origin) transfected in CHO cells to Ki for OX1R (unknown origin) transfected in CHO cells; assay type: cell-based
[3] = biological target: T1, Orexin/Hypocretin receptor type 1 (Homo sapiens, UniProt O43613); test: Displacement of [3H]SB-674042 from recombinant human OX1R extracted from HEK293T membrane by radioligand binding assay; assay type: cell membranes
T1 sequence (O43613 whole entry): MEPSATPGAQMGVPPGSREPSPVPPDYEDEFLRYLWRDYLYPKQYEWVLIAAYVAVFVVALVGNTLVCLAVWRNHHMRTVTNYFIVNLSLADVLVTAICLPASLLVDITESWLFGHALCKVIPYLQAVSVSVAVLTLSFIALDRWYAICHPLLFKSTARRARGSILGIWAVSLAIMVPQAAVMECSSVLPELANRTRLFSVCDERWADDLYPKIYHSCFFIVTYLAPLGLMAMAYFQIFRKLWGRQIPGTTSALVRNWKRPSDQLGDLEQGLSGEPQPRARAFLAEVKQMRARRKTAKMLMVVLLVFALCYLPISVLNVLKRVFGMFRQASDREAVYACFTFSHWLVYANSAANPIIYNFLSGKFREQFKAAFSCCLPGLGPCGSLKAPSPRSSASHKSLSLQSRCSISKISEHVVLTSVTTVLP

[4] = biological target: T1, Orexin/Hypocretin receptor type 1; test: Displacement of […]5IBOM from OX1R (unknown origin) transfected in CHO cells assessed as inhibition constant incubated for 1.5 hrs by automated gamma-counter analysis; assay type: cell-based
[5] = biological target: T2, Orexin receptor type 2 (Homo sapiens, UniProt O43614); test: Displacement of [3H]EMPA from recombinant human OX2R extracted from HEK293T membrane by radioligand binding assay; assay type: cell membranes
T2 sequence (O43614 whole entry): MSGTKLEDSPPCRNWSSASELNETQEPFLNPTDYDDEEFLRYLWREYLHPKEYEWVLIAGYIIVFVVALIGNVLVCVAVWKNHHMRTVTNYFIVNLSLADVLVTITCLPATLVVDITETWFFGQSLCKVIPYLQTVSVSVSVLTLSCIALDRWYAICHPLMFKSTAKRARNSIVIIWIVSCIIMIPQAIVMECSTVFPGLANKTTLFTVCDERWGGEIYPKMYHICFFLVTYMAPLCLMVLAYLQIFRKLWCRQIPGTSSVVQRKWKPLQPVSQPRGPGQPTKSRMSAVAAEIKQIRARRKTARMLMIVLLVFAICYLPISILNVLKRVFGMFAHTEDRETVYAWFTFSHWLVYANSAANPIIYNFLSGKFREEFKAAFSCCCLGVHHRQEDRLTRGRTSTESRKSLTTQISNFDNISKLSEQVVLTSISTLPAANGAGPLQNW

[6] = species: Homo sapiens; test: Selectivity ratio of IC50 for recombinant human OX2R extracted from HEK293T cell membrane to IC50 for recombinant human OX1R extracted from HEK293T cell membrane
[7] = biological target: T2, Orexin receptor type 2; test: Displacement of […]5IBOM from OX2R (unknown origin) transfected in CHO cells assessed as inhibition constant incubated for 1.5 hrs by automated gamma-counter analysis; assay type: cell-based
[8] = Biodistribution in male ddY mouse pancreas administered intravenously and measured at 10 mins postinjection by gamma counter analysis; assay type: ADME, organism-based; details: in vivo, iv
[9] = Biodistribution in male ddY mouse liver administered intravenously and measured at 30 mins postinjection by gamma counter analysis; assay type: ADME, organism-based; details: in vivo, iv, 0.5 h
[10] = Biodistribution in male ddY mouse pancreas administered intravenously and measured at 30 mins postinjection by gamma counter analysis; assay type: ADME, organism-based; details: in vivo, iv, 0.5 h
[11] = Biodistribution in male ddY mouse pancreas administered intravenously and measured at 2 mins postinjection by gamma counter analysis; assay type: ADME, organism-based; details: in vivo, iv
[12] = Biodistribution in male ddY mouse blood administered intravenously and measured at 10 mins postinjection by gamma counter analysis; assay type: ADME, organism-based; details: in vivo, iv
[13] = Biodistribution in male ddY mouse intestine administered intravenously and measured at 2 mins postinjection by gamma counter analysis; assay type: ADME, organism-based; details: in vivo, iv
[14] = Biodistribution in male ddY mouse bone administered intravenously and measured at 30 mins postinjection by gamma counter analysis; assay type: ADME, organism-based, Bone element; details: in vivo, iv, 0.5 h
[15] = Biodistribution in male ddY mouse kidney administered intravenously and measured at 10 mins postinjection by gamma counter analysis; assay type: ADME, organism-based; details: in vivo, iv
[16] = Biodistribution in male ddY mouse lung administered intravenously and measured at 30 mins postinjection by gamma counter analysis; assay type: ADME, organism-based; details: in vivo, iv, 0.5 h
[17] = Biodistribution in male ddY mouse pancreas administered intravenously and measured at 60 mins postinjection by gamma counter analysis; assay type: ADME, organism-based; details: in vivo, iv, 1 h
[18] = Biodistribution in male ddY mouse liver administered intravenously and measured at 10 mins postinjection by gamma counter analysis; assay type: ADME, organism-based; details: in vivo, iv
[19] = Biodistribution in male ddY mouse lung administered intravenously and measured at 2 mins postinjection by gamma counter analysis; assay type: ADME, organism-based; details: in vivo, iv
[20] = Biodistribution in male ddY mouse brain administered intravenously and measured at 30 mins postinjection by gamma counter analysis; assay type: ADME, organism-based; details: in vivo, iv, 0.5 h
[21] = Biodistribution in male ddY mouse kidney administered intravenously and measured at 60 mins postinjection by gamma counter analysis; assay type: ADME, organism-based; details: in vivo, iv, 1 h
[22] = Biodistribution in male ddY mouse lung administered intravenously and measured at 10 mins postinjection by gamma counter analysis; assay type: ADME, organism-based; details: in vivo, iv
[23] = Biodistribution in male ddY mouse stomach administered intravenously and measured per organ at 10 mins postinjection by gamma counter analysis; assay type: ADME, organism-based; details: in vivo, iv
[24] = Biodistribution in male ddY mouse intestine administered intravenously and measured at 60 mins postinjection by gamma counter analysis; assay type: ADME, organism-based; details: in vivo, iv, 1 h
[25] = Biodistribution in male ddY mouse brain administered intravenously and measured at 60 mins postinjection by gamma counter analysis; assay type: ADME, organism-based; details: in vivo, iv, 1 h
[26] = Biodistribution in male ddY mouse bone administered intravenously and measured at 60 mins postinjection by gamma counter analysis; assay type: ADME, organism-based, Bone element; details: in vivo, iv, 1 h
[27] = Biodistribution in male ddY mouse stomach administered intravenously and measured per organ at 2 mins postinjection by gamma counter analysis; assay type: ADME, organism-based; details: in vivo, iv
[28] = Biodistribution in male ddY mouse blood administered intravenously and measured at 2 mins postinjection by gamma counter analysis; assay type: ADME, organism-based; details: in vivo, iv
[29] = Biodistribution in male ddY mouse bone administered intravenously and measured at 2 mins postinjection by gamma counter analysis; assay type: ADME, organism-based, Bone element; details: in vivo, iv
[30] = Biodistribution in male ddY mouse intestine administered intravenously and measured at 30 mins postinjection by gamma counter analysis; assay type: ADME, organism-based; details: in vivo, iv, 0.5 h
[31] = Biodistribution in male ddY mouse spleen administered intravenously and measured at 10 mins postinjection by gamma counter analysis; assay type: ADME, organism-based; details: in vivo, iv
[32] = Biodistribution in male ddY mouse heart administered intravenously and measured at 30 mins postinjection by gamma counter analysis; assay type: ADME, organism-based; details: in vivo, iv, 0.5 h
[33] = Biodistribution in male ddY mouse blood administered intravenously and measured at 60 mins postinjection by gamma counter analysis; assay type: ADME, organism-based; details: in vivo, iv, 1 h
[34] = Biodistribution in male ddY mouse kidney administered intravenously and measured at 2 mins postinjection by gamma counter analysis; assay type: ADME, organism-based; details: in vivo, iv
[35] = Biodistribution in male ddY mouse kidney administered intravenously and measured at 30 mins postinjection by gamma counter analysis; assay type: ADME, organism-based; details: in vivo, iv, 0.5 h
[36] = Biodistribution in male ddY mouse spleen administered intravenously and measured at 60 mins postinjection by gamma counter analysis; assay type: ADME, organism-based; details: in vivo, iv, 1 h
[37] = Biodistribution in male ddY mouse heart administered intravenously and measured at 60 mins postinjection by gamma counter analysis; assay type: ADME, organism-based; details: in vivo, iv, 1 h
[38] = Biodistribution in male ddY mouse blood administered intravenously and measured at 30 mins postinjection by gamma counter analysis; assay type: ADME, organism-based; details: in vivo, iv, 0.5 h
[39] = Biodistribution in male ddY mouse stomach administered intravenously and measured per organ at 30 mins postinjection by gamma counter analysis; assay type: ADME, organism-based; details: in vivo, iv, 0.5 h
[40] = Biodistribution in male ddY mouse liver administered intravenously and measured at 60 mins postinjection by gamma counter analysis; assay type: ADME, organism-based; details: in vivo, iv, 1 h
[41] = Biodistribution in male ddY mouse spleen administered intravenously and measured at 2 mins postinjection by gamma counter analysis; assay type: ADME, organism-based; details: in vivo, iv
[42] = Biodistribution in male ddY mouse spleen administered intravenously and measured at 30 mins postinjection by gamma counter analysis; assay type: ADME, organism-based; details: in vivo, iv, 0.5 h
[43] = Biodistribution in male ddY mouse heart administered intravenously and measured at 2 mins postinjection by gamma counter analysis; assay type: ADME, organism-based; details: in vivo, iv
[44] = Biodistribution in male ddY mouse heart administered intravenously and measured at 10 mins postinjection by gamma counter analysis; assay type: ADME, organism-based; details: in vivo, iv
[45] = Biodistribution in male ddY mouse brain administered intravenously and measured at 2 mins postinjection by gamma counter analysis; assay type: ADME, organism-based; details: in vivo, iv
[46] = Biodistribution in male ddY mouse bone administered intravenously and measured at 10 mins postinjection by gamma counter analysis; assay type: ADME, organism-based, Bone element; details: in vivo, iv
[47] = Biodistribution in male ddY mouse stomach administered intravenously and measured per organ at 60 mins postinjection by gamma counter analysis; assay type: ADME, organism-based; details: in vivo, iv, 1 h
[48] = Biodistribution in male ddY mouse lung administered intravenously and measured at 60 mins postinjection by gamma counter analysis; assay type: ADME, organism-based; details: in vivo, iv, 1 h
[49] = Biodistribution in male ddY mouse intestine administered intravenously and measured at 10 mins postinjection by gamma counter analysis; assay type: ADME, organism-based; details: in vivo, iv
[50] = Biodistribution in male ddY mouse liver administered intravenously and measured at 2 mins postinjection by gamma counter analysis; assay type: ADME, organism-based; details: in vivo, iv
[51] = Biodistribution in male ddY mouse brain administered intravenously and measured at 10 mins postinjection by gamma counter analysis; assay type: ADME, organism-based; details: in vivo, iv

COc1ccnc(N2CCC3(CCN(Cc4cn(C)c5ccccc45)C(=O)C3)CC2)n1
Ratio IC50 [1]: 5.6

Cc1ccc(-n2nccn2)c(C(=O)N2CCCN(c3nc4cc(Cl)ccc4o3)C[C@@H]2C)c1
Ratio Ki [2]: 8.71
IC50 [3]: 0.83 nM
Ki [4]: 1.12 nM
IC50 [5]: 2 nM
Ratio IC50 [6]: 2.4
Ki [7]: 9.79 nM

Cc1ccc(-n2nccn2)c(C(=O)N2CCCN(c3nc4cc([18F])ccc4s3)C[C@@H]2C)c1
Drug uptake [8]: 4.87 % ID/g
Drug uptake [9]: 10.1 % ID/g
Drug uptake [10]: 1.47 % ID/g
Drug uptake [11]: 8.33 % ID/g
Drug uptake [12]: 3.87 % ID/g
Drug uptake [13]: 3.5 % ID/g
Drug uptake [14]: 25.8 % ID/g
Drug uptake [15]: 7.95 % ID/g
Drug uptake [16]: 2.6 % ID/g
Drug uptake [17]: 0.53 % ID/g
Drug uptake [18]: 30.6 % ID/g
Drug uptake [19]: 9.43 % ID/g
Drug uptake [20]: 0.39 % ID/g
Drug uptake [21]: 1.64 % ID/g
Drug uptake [22]: 5.68 % ID/g
Drug uptake [23]: 4.17 %ID
Drug uptake [24]: 15.3 % ID/g
Drug uptake [25]: 0.15 % ID/g
Drug uptake [26]: 37.8 % ID/g
Drug uptake [27]: 2.38 %ID
Drug uptake [28]: 4.74 % ID/g
Drug uptake [29]: 2.51 % ID/g
Drug uptake [30]: 11.6 % ID/g
Drug uptake [31]: 4.09 % ID/g
Drug uptake [32]: 2.19 % ID/g
Drug uptake [33]: 0.64 % ID/g
Drug uptake [34]: 11.9 % ID/g
Drug uptake [35]: 4.53 % ID/g
Drug uptake [36]: 0.45 % ID/g
Drug uptake [37]: 0.7 % ID/g
Drug uptake [38]: 2.2 % ID/g
Drug uptake [39]: 1.58 %ID
Drug uptake [40]: 4.12 % ID/g
Drug uptake [41]: 4.4 % ID/g
Drug uptake [42]: 1.43 % ID/g
Drug uptake [43]: 9.03 % ID/g
Drug uptake [44]: 10.2 % ID/g
Drug uptake [45]: 3.81 % ID/g
Drug uptake [46]: 8.73 % ID/g
Drug uptake [47]: 1.97 %ID
Drug uptake [48]: 0.7 % ID/g
Drug uptake [49]: 8.75 % ID/g
Drug uptake [50]: 17.2 % ID/g
Drug uptake [51]: 1.49 % ID/g
